# Experimental data taken from US11938195B2, “Upconversion nanoparticle peptide conjugates” (BP InnoMed Limited, priority 2021, dated 2024).
# Where no end group is shown, it is not given here. [ ]: non-standard residue; d: D form. Ahx = NCCCCCC(=O)O
# Key:
# [1] = test system: EBV-positive C666 cells; experiment: Two-photon confocal imaging, C666; type: cell-based; settings: mainly from the nuclei, 24 h incubation
# Procedure: After the study of cellular uptake, fluorescent confocal microscopy was used to study the sub-cellular localization with the same set of EBV-/LMP1-positive and -negative cell lines. All these cell lines were treated with as-prepared samples for different time intervals of 1 h, 3 h, 6 h, 12 h and 24 h. Fluorescence signals in the cells were imaged under 980 nm excitation.
# The cells were then co-stained with 0.05 mM nuclear dye DRAQ5 for 0.5 h for confocal imaging with a Leica SP8 confocal microscope equipped with a coherent femtosecond laser (690-1050 nm), argon laser (432 nm, 457 nm and 488 nm), He—Ne laser (632 nm), UV lamp. A stage-top cell culture chamber was also used to maintain the atmospheric conditions of 2-7% CO2 and a temperature of 37° C.
# [2] = test system: HK1-LMP1 cells; experiment: Cellular uptake by ICP-MS, HK1-LMP1; type: cell-based
# Procedure: Subsequently, the quantitative distribution and uptake efficiency of nanoprobes in vitro in C666, HK1, HK1-LMP1 and LCL3 cells lines were monitored and investigated by evaluating the lanthanide content originating from the nanoprobes using inductively coupled plasma mass spectrometry (ICP-MS).
# After co-incubation, the cell culture medium containing the nanoprobes was removed, and the exposed cells were further rinsed with 1 mL PBS three times. After that, the cells were trypsinized and re-dispersed in 1 mL cell medium. The cells were collected by centrifugation at 1500 rpm, and the cell pellet was digested in 100 μL concentrated HNO3 (69%) at room temperature for 3 h. Then, each cell pellet in centrifuge tube was filled up to 10 mL with 1% HNO3. The cellular uptake of all the nanoprobes was recorded via an Agilent 7500 series ICP-MS instrument. All ICP experiments were performed three times, and the values of Gd concentration (ppm) obtained were calculated and averaged.
# [3] = biological target: EBNA1 (DNA-binding domain fragment of a.a.468-607) (Epstein-Barr virus, UniProt P03211); experiment: EBNA1 dimerization/oligomerization inhibition assay; type: biochemical; settings: 0.3 mg/mL nanoprobe, 90 mg EBNA1, DSS crosslinking, SDS gel
# Procedure: EBNA1 dimerization/oligomerization inhibition assays were performed to reveal the ability of interrupting EBNA1 dimerization/oligomerization in the presence of the previous nanoprobe UCNP-P4 and the nanoplatforms in situ.
# (conc.: 0.3 mg/mL) at 4° C. overnight. Then, 2 mM disuccinimidyl suberate (DSS) was added to allow the samples to undergo crosslinking reaction at room temperature for 30 min. The samples were run and separated on an SDS-denaturing gel and proteins were detected using Coomassie Blue staining. PBS buffer was used as control group.
# [4] = test system: C666 derived xenografts; experiment: In vivo suppression assay, C666 xenograft
# Description: To determine the antitumor efficacy of the new nanoprobes in vivo, their therapeutic effects were investigated in C666 and HeLa derived xenografts in BALB/c nude mice. The mice were randomly divided into five groups: (1) control (PBS), (2) UCNP, (3) UCNP-P5, (4) UCNP-P6, (5) UCNP-P7. In order to recapitulate the clinical setting of drug delivery, intravenous injection (via a tail vein) was used to deliver these agents to the immunocompromised animal.
# In vivo suppression assays: EBV-positive C666 and EBV-negative HeLa cells were suspended in 200 μL of serum-free RMPI 1640 and DMEM respectively. Female BALB/c nude mice (6-8 weeks) which obtained from HKU were then injected with the cells in the right flank. Intravenous injections were performed when the average tumor volumes reached ˜200 mm^3. 0.25 mg/tumor dose of UCNP and UCNP-Pn [n=5, 6 and 7 (SEQ ID NO: 5, 6, 7)] in […] PBS buffer were injected through tail vein of mice using a 24-gauge syringe. Mice injected with the same volume of PBS buffer served as control. The body weight and tumor volumes of the mice were measured three times per week; in which the latter is calculated by (L×W^2)/2, where L and W are the longer and shorter tumor dimensions respectively. Intravenous injection at the tail vein were performed twice a week and the mice were sacrificed after 33-day experimental period; the tumors were extracted and weighed. The treatment groups are unknown to the investigators for the experimental and data analysis processes. The animal experiments conducted were approved by the Department of Health of the HKSAR Government. All animal procedures are within the Guidelines for Care and Use of Laboratory Animals of HKBU and approved by the Animal Ethics Committee of HKBU.
# Hematoxylin and eosin (H&E) staining: In general, the transplanted C666 and HeLa derived tumor tissues were collected and fixed with formalin, followed by embedding in paraffin. The histologic sections were then stained with hematoxylin and eosin. Other major organ tissues (heart, liver, spleen, lung, kidney, brain) were conducted in the same procedures.
# [5] = test system: p65; experiment: Western blot of p65 (NF-κB) in LCL3 cells; type: cell-based
# Description: NF-κB signaling pathway is critical for the survival of EBV-infected tumor cells. Here we investigated if our nanoprobes could affect this oncogenic pathway. EBV-positive LCL3 and C666 cells were used as models, EBV-negative HK1 cells were used as control and Western blot was used to analyze the protein expression of p65, a major transcription factor in the NF-κB family. […] GAPDH and Histone are regarded as internal standards in cytosolic and nuclear fractions, respectively. […] This is consistent with the cellular uptake results.
# Western blotting: EBV-positive C666, LCL3 and EBV-negative HK1 cell pellets were treated with phosphatase and protease inhibitors at 0-4° C. for 30 min. The total protein concentrations were calculated by protein absorbance. The protein was resolved by sodium dodecyl sulfate-polyacrylamide gel electrophoresis (SDS-PAGE) and transferred to cellulose filter membranes. The membranes were blocked with 3% BSA in Tris-buffered saline in 0.1% Tween 20 (TBST) for 1 h with gentle shaking and subsequently incubated with primary antibodies (1:1000) in 3% BSA in TBST at 4° C. for overnight. After rinsing with TBST buffer three times, the blots were then incubated with corresponding secondary anti-rabbit antibody (1:6000) for 1 h. After that, the blots were rinsed again with 3% BSA in TBST for 1 h shaking at room temperature. Lastly, the density of bands was determined by image analysis system after washing with TBST buffer three times.
# [6] = test system: EBV-negative HeLa cells; experiment: MTT cytotoxicity assay, HeLa cells; type: cell-based, human; design: unit not given here; settings: 24 h incubation
# [7] = C666 tumor-bearing mice, 33-day experimental period
# Sequence of EBNA1 (DNA-binding domain fragment of a.a.468-607) (P03211 468-607): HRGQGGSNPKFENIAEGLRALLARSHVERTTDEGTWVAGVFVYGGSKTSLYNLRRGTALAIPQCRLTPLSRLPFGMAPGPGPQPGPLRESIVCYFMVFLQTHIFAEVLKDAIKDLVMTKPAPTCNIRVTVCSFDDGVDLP
substance,measurement,setting,value
"UCNP-P5: UCNP is NaGdF4:Yb^3+, Er^3+@NaGdF4 and plurality of polypeptides is Ahx-YFMVFGGRrRKGGFWLY (SEQ ID NO: 5), pH-sensitive imine linker ([Ahx]YFMVFGGR[dR]RKGGFWLY; also: conjugated to UCNP NaGdF4:Yb3+,Er3+@NaGdF4 via pH-sensitive imine linker)",Responsive emission enhancement (lambda scan),[1],two-fold
same,Uptake relative to UCNP-P6 and UCNP-P7,[2]; HK1-LMP1 (HK1 / HK1-LMP1 cell pair),two-fold
same,Cellular uptake (Gd amount by ICP-MS),"[2]; HK1-LMP1, 50 μg/mL",largest amount of cellular uptake
same,Inhibition of EBNA1 dimerization/oligomerization,[3],eradicate all 90 mg EBNA1 dimers and oligomers
same,Effect on average tumor size,"[4]; 12.5 mg/kg, intravenous (tail vein), twice a week, 33 days",significantly reduce the average tumor size
same,Tumor uptake relative to UCNP-P6 and UCNP-P7 (ICP-MS biodistribution),"[4]; C666 tumor, Gd ions",~3 fold
same,Body weight,[4]; [7],slightly increased
same,Various organ weights,[4]; [7],slightly increased
same,"Decreased p65 expression, nuclear fraction",[5],86%
same,IC50 in HeLa,[6],1086
